In patent publication US8367662B2, “Organic compounds” (Novartis AG, priority 2007, dated 2013):

T1: human ALK5 (ALK5 T204D kinase domain) (Homo sapiens, UniProt P36897, T204D)
T1 construct: The kinase domain of human ALK5 (amino acids 200-503); made in house; host or cells: insect cells (baculovirus)
T1 sequence (P36897 200-503 T204D): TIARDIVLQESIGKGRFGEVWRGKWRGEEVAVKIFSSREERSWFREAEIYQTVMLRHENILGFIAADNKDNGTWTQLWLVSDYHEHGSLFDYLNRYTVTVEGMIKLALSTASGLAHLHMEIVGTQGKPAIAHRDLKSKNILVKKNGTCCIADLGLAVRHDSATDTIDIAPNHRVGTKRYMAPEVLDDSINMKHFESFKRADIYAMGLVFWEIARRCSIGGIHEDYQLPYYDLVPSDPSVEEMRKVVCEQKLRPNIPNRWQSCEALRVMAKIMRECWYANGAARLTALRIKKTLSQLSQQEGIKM


Tested on: dimethylnitrosamine induced liver fibrosis
Test: not given
Conditions: rat, during the 3 weeks treatment; cited from earlier work

| Molecule | side effects |
| --- | --- |
| c1ccc(-c2cc(-c3cn[nH]c3-c3ccccn3)ccn2)cc1 [GW6604] | no obvious side effects |

Same assay, conditions: rat, given therapeutically, dimethylnitrosamine induced liver fibrosis; cited from earlier work

| Molecule | death rate prevented [%] | inhibition of extracellular matrix deposition [%] |
| --- | --- | --- |
| c1ccc(-c2cc(-c3cn[nH]c3-c3ccccn3)ccn2)cc1 [GW6604] | 40 | 60 |

Molecular target: T1, human ALK5 (ALK5 T204D kinase domain)
Test: ALK5 kinase assay: [33P] phosphate incorporation into casein
Assay type: biochemical
Conditions: casein substrate, 1 μM unlabelled ATP
Protocol: The kinase activity of ALK5 is assessed by measuring radiolabelled phosphate [33P] incorporation in to the generic substrate, casein. The kinase domain of human ALK5 (amino acids 200-503) is fused to an N-terminal histidine tag. The kinase activity of ALK5 is rendered constitutive via point mutation at amino acid 204 (threonine to aspartate modification, ALK5 T204D) and the kinase construct is engineered to be expressed from a baculovirus expression construct in insect cells. The purified, recombinantly-expressed histidine-tagged ALK5 T204D protein is dissolved at 5.4 mg/ml in 50 mM Tris-HCl pH 8.0, 150 mM NaCl, 5 mM DTT. ALK5 T204D is dissolved to 2.5 μg/ml in assay buffer (Assay buffer: 20 mM Tris-HCl pH 7.4, 10 mM MgCl2, 2 mM MnCl2) on the day of use.
Test compounds and reference compounds are dissolved in assay buffer without DTT containing 5% (v/v) DMSO. Stock solutions of test and reference compounds are diluted in assay buffer with DTT (1.25 mM) containing 4.5% (v/v) DMSO. 10 μl of test or reference compound are added to the appropriate wells of 96 well U-bottomed plate. Total enzyme activity is determined by measuring ALK5 T204D activity in the absence of ALK5 kinase inhibitor reference compounds. Non-specific binding (NSB) is determined by measuring the activity of ALK5 T204D in the presence of ALK5 kinase inhibitor reference compounds. 10 μl of dephosphorylated casein stock solution (dephosphorylated casein is dissolved in ddH2O at 20 mg/ml) is added per well (200 μg/well final assay concentration). 20 μl of ALK5 T204D (2.5 μg/ml solution) is added per well (50 ng/well final assay concentration). The plates are left to incubate at room temperature for 10 minutes.
10 μl of ATP mix is added to the well to initiate the reaction (0.66 nM [^33P]ATP/1 μM unlabelled ATP/well final assay concentration). The ATP mix is prepared as follows, unlabelled ATP (3 mM) is dissolved in ddH2O and pH adjusted to 7.4. The stock concentration of [^33P]ATP is 10 μCi/μl. The appropriate volume of [^33P]ATP is added to unlabelled ATP solution such that the final assay concentration per well is 0.1 μCi. Following addition of the ATP mix, the plates are incubated at room temperature for 50 minutes. The kinase reaction is terminated by the addition of 50 μL Stop Buffer (20 mM Tris-HCl pH 7.4, 10 mM EDTA).
75 μ/well from the reaction plate is transferred to a Multiscreen-IP plate (MultiScreen-IP plates are prepared by added 50 μL of 70% (v/v) ethanol per well and incubated for 5 minutes at room temperature. The ethanol is removed by aspiration via a MultiScreen HTS Vaccum Manifold unit (Millipore, Cat no: MSVMHT500). The plates are washed twice by adding 200 μl/well ddH2O). The MultiScreen-IP plate is incubated at room temperature for 30 minutes to allowing binding of casein to the plate. The MultiScreen-IP plates are washed three times by adding 200 μl/well 100 mM phosphoric acid solution and the gasket is carefully removed from the back of the MultiScreen-IP plate and the plate dried in the oven for 30 minutes. The MultiScreen-IP plate is backsealed, 50 μL of Microscint®20 is added, then the plates are topsealed and radiolabelled casein detected and quantified on a TopCount™ plate-reader using the ^33P scintillation protocol.

| Molecule | IC50 [nM] |
| --- | --- |
| O=Cc1cccc(-c2ccn3c(-c4cccc(-n5cccn5)c4)cnc3c2)c1 [Example 1.9, 3-[3-(3-Pyrazol-1-yl-phenyl)-imidazo[1,2-a]pyridin-7-yl]-benzaldehyde] | 86 |
| c1cncc(-c2ccn3c(-c4cccc(-n5cccn5)c4)cnc3c2)c1 [Example 1.1, 3-(3-Pyrazol-1-yl-phenyl)-7-pyridin-3-yl-imidazo[1,2-a]pyridine] | 4 |
| Fc1cccc(-c2cc(-c3cnc4cc(-c5cccnc5)ccn34)ccn2)c1 [Example 1.17, 3-[2-(3-Fluoro-phenyl)-pyridin-4-yl]-7-pyridin-3-yl-imidazo[1,2-a]pyridine] | 76 |
| c1ccc(-c2cc(-c3cnc4cc(-c5ccc(N6CCOCC6)nc5)ccn34)ccn2)cc1 [Example 1.5, 7-(6-Morpholin-4-yl-pyridin-3-yl)-3-(2-phenyl-pyridin-4-yl)-imidazo[1,2-a]pyridine] | 8 |
| CNC(=O)c1cccc(-c2ccn3c(-c4ccnc(-c5cccc(F)c5)c4)cnc3c2)c1 [Example 1.13, 3-{3-[2-(3-Fluoro-phenyl)-pyridin-4-yl]-imidazo[1,2-a]pyridin-7-yl}-N-methyl-benzamide] | 55 |

Second part, the molecule after the results:

| IC50 [nM] | Molecule |
| --- | --- |
| 47 | Fc1ccccc1-c1cc(-c2cnc3cc(-c4cccnc4)ccn23)ccn1 [Example 1.30, 3-[2-(2-Fluoro-phenyl)-pyridin-4-yl]-7-pyridin-3-yl-imidazo[1,2-a]pyridine] |
| 281 | CCOc1cc(-c2cnc3ccc(N[C@H]4CC[C@H](O)CC4)cn23)ccn1 [Example 2.7] |
| 77 | CNC(=O)c1cccc(-c2ccn3c(-c4ccnc(-n5ccc(C)n5)c4)cnc3c2)c1 [Example 1.23, N-Methyl-3-{3-[2-(3-methyl-pyrazol-1-yl)-pyridin-4-yl]-imidazo[1,2-a]pyridin-7-yl}-benzamide] |
| 108 | COc1cc(-c2cnc3ccc(N[C@H]4CC[C@H](O)CC4)cn23)ccn1 [Example 2.2] |
| 52 | O=Cc1cccc(-c2ccn3c(-c4ccnc(N5CCCC5)c4)cnc3c2)c1 [Example 1.46, 3-[3-(2-Pyrrolidin-1-yl-pyridin-4-yl)-imidazo[1,2-a]pyridin-7-yl]-benzaldehyde] |
| 57 | CNC(=O)c1ccc(-c2ccc3ncc(-c4ccnc(-c5ccoc5)c4)n3c2)cc1 [Example 2.18, 4-[3-(2-Furan-3-yl-pyridin-4-yl)-imidazo[1,2-a]pyridin-6-yl]-N-methyl-benzamide] |
| 147 | c1cc(-c2cnc3ccc(-c4ccoc4)cn23)cc(-c2ccoc2)n1 [Example 2.12, 6-Furan-3-yl-3-(2-Furan-3-yl-pyridin-4-yl)-imidazo[1,2-a]pyridine] |
| 97 | CS(=O)(=O)Nc1cccc(-c2ccc3ncc(-c4ccnc(-c5ccoc5)c4)n3c2)c1 [Example 2.20, N-{3-[3-(2-Furan-3-yl-pyridin-4-yl)-imidazo[1,2-a]pyridin-6-yl]-phenyl}-methanesulfonamide] |

Tested on: bleomycin-treated rats
Test: not given
Conditions: cited from earlier work

| Molecule | lung fibrosis | number of macrophages and neutrophils in bronchoalveolar lavage |
| --- | --- | --- |
| follistatin: an antagonist of activin signalling (protein, UniProt P19883 30-344, looked up) Follistatin: GNCWLRQAKNGRCQVLYKTELSKEECCSTGRLSTSWTEEDVNDNTLFKWMIFNGGAPNCIPCKETCENVDCGPGKKCRMNKKNKPRCVCAPDCSNITWKGPVCGLDGKTYRNECALLKARCKEQPELEVQYQGRCKKTCRDVFCPGSSTCVVDQTNNAYCVTCNRICPEPASSEQYLCGNDGVTYSSACHLRKATCLLGRSIGLAYEGKCIKAKSCEDIQCTGGKKCLWDFKVGRGRCSLCDELCPDSKSDEPVCASDNATYASECAMKEAACSSGVLLEVKHSGSCNSISEDTEEEEEDEDQDYSFPISSILEW | attenuated lung fibrosis | significantly reduced |
